# Test results reported in patent US9173841B2, “Polymer nanoparticle injection formulation composition containing rapamycin with improved water solubility, preparation method thereof, and anticancer composition for combined use with radiotherapy” (SAMYANG BIOPHARMACEUTICALS CORPORATION, priority 2009, dated 2015).
# Experiments:
# [1] = cited from earlier work
# [2] = Experiment 4: in vivo pharmacokinetic behavior, rapamycin level in blood; parameters: species or system male Sprague-Dawley rats; conditions: rats, intravenous administration
# Method: The in vivo pharmacokinetic behavior of the rapamycin-entrapping nanoparticle composition of Example 1 was evaluated. For animal experiment, male Sprague-Dawley rats weighing 210 to 250 g were used, and 0.3 ml of whole blood was taken from caudal vein every 5, 15 and 30 minutes, and 1, 2, 4, 8 and 24 hours after intravenous and subcutaneous injection of the dose of 5 mg/kg, on the basis of rapamycin. The collected whole blood was treated with the Protein Precipitation (PPT, Progress in Pharmaceutical and Biomedical Analysis, Volume 5, 2003, Pages 199-254) and then centrifuged to obtain 0.15 ml of clear supernatant which was analyzed to check the rapamycin concentration in blood by LC/MS/MS method.
# The in vivo pharmacokinetic behavior of the rapamycin-entrapping nanoparticle composition of Example 2 was evaluated by means of the same method as in Experiment 1. However, the composition was administered via oral, intravenous or subcutaneous route in the dose of 10 mg/kg on the basis of rapamycin, and 0.3 ml of whole blood was taken from caudal vein every 15 and 30 minutes, and 1, 2, 4, 8, 24 and 48 hours after administration.
# [3] = male, Sprague-Dawley, rat, whole blood, 10 mg/kg
smiles,measurement,setting,value
"CO[C@H]1C[C@@H]2CC[C@@H](C)[C@@](O)(O2)C(=O)C(=O)N2CCCC[C@H]2C(=O)O[C@H]([C@H](C)C[C@@H]2CC[C@@H](O)[C@H](OC)C2)CC(=O)[C@H](C)/C=C(\C)[C@@H](O)[C@@H](OC)C(=O)[C@H](C)C[C@H](C)/C=C/C=C/C=C/1C [rapamycin, Rapamycin]",solubility in water,[1],1 to 2 µg/mL
same,AUC(0-t),"[2]; male, Sprague-Dawley, rat, whole blood, 10 mg/kg on the basis of rapamycin",5370 ng·h/mL
same,AUC(0-inf),[2]; [3],5600 ng·h/mL
same,Cmax,[2]; [3],2890 ng/mL
same,Tmax,[2]; [3],0.25 h
same,half-life,[2]; [3],10.5 h
same,F,"[2]; 10 mg/kg, free sirolimus intravenous = 100",100%
